Laboratory results from paper PMC7462985, “Inhibitors of BRAF dimers using an allosteric site” (Nature Communications, 2020).

How the values were obtained:
[1] = target: T1, ABL1 (Homo sapiens, UniProt P00519); experiment: SelectScreen kinase activity assay; format: biochemical; conditions: 100 μM ATP
T1 construct: purchased Invitrogen (SelectScreen service)
Description: (§2) BRAF kinase assays were performed using the Z’-LYTE™ enzymatic assay (Invitrogen, USA). […] Titrations were performed using a 1:3 dilution. Assays were performed using SelectScreen (Invitrogen).

[2] = tested on: HEK293H cells expressing p61BRAF^V600E/R509H; experiment: p-ERK inhibition in transfected HEK293H cells; format: cell-based; conditions: HEK293-H, 1 μM lapatinib pre-treatment 1 h, PHI1 1 h, read-out: IC50 of pERK inhibition
Description: (§1) HEK239H cells were seeded in 6-well plates (1 × 10^6 cells per well) and transfected the following day using Lipofectamine 3000 (Invitrogen L3000008) according to the manufacturer’s instructions. 2 μg of p61BRAF^V600E plasmid (pcDNA-3 vector) DNA per well was employed. […] ERK signaling and BRAF^V600E expression was assessed by western blot. […] In addition, HEK239H cells seeded in 6-well plates (1 × 10^6 cells per well) were transfected with Lipofectamine 3000 containing 2 μg of p61BRAF^V600E plasmid or 2 μg of p61BRAF^V600ER509H plasmid (pcDNA-3 vector) DNA per well. 24 h after transfection cells were treated with DMSO or increasing concentrations of PHI1 for 1 h and ERK signaling, and BRAF expression was assessed by western blot.

[3] = tested on: HEK293H cells expressing p61BRAF^V600E; experiment: p-ERK inhibition in transfected HEK293H cells; format: cell-based; conditions: HEK293-H, 1 μM lapatinib pre-treatment 1 h, PHI1 1 h, read-out: IC50 of pERK inhibition
Description: as §1

[4] = target: T2, ABL1-phosphorylated (Homo sapiens, UniProt P00519); experiment: KINOMEscan scanEDGE binding; conditions: KinomeEDGE scan, compound at 1 μΜ
T2 construct: purchased Eurofins/DiscoverX KINOMEscan (scanEDGE panel)

[5] = target: T3, ROCK2 (Homo sapiens, UniProt O75116); experiment: KINOMEscan scanEDGE binding; conditions: KinomeEDGE scan, compound at 1 μΜ
T3 construct: purchased Eurofins/DiscoverX KINOMEscan (scanEDGE panel)

[6] = target: FGFR1 (Homo sapiens, UniProt P11362); experiment: SelectScreen kinase activity assay; format: biochemical; parameters: purchased Invitrogen (SelectScreen service)
Description: as §2

[7] = tested on: melanoma cells dependent on BRAF^V600E, p61BRAF^V600E, and RAS^MUT/BRAF^WT; experiment: 3D culture colony formation; format: cell-based; conditions: 0.1-10 μM, 5th day of culture, compared to Vemurafenib
Description: 3D laminin-rich extracellular matrix cultures were prepared by trypsinization of melanoma cells from tissue culture plastic, seeding of single cells on top of a thin layer of Growth Factor-Reduced Matrigel (BD Biosciences, Franklin Lakes, NJ), and the addition of a medium containing 5% Matrigel. The cells were seeded at the density of 40,000 cells per cm^2. All 3D cell cultures were performed in DMEM supplemented with 5 μg/mL bovine insulin with Zinc (Gibco), 15 μg/mL bovine pituitary extract (Gibco), 0.5 ng/mL epidermal growth factor (Sigma-Aldrich, St. Louis, MO) and 2% fetal bovine serum. 3D cultures were maintained with media and/or drug-treatment changes every second day, and photographs were taken at the end of the 5th day. The size of single cell colonies was estimated with ImageJ (Version 1.51).

[8] = target: T4, CDK7 (Homo sapiens, UniProt P50613); experiment: KINOMEscan scanEDGE binding; conditions: KinomeEDGE scan, compound at 1 μΜ
T4 construct: purchased Eurofins/DiscoverX KINOMEscan (scanEDGE panel)

[9] = target: T5, IKK-beta (Homo sapiens, UniProt O14920); experiment: KINOMEscan scanEDGE binding; conditions: KinomeEDGE scan, compound at 1 μΜ
T5 construct: purchased Eurofins/DiscoverX KINOMEscan (scanEDGE panel)
T5 sequence (O14920 whole entry): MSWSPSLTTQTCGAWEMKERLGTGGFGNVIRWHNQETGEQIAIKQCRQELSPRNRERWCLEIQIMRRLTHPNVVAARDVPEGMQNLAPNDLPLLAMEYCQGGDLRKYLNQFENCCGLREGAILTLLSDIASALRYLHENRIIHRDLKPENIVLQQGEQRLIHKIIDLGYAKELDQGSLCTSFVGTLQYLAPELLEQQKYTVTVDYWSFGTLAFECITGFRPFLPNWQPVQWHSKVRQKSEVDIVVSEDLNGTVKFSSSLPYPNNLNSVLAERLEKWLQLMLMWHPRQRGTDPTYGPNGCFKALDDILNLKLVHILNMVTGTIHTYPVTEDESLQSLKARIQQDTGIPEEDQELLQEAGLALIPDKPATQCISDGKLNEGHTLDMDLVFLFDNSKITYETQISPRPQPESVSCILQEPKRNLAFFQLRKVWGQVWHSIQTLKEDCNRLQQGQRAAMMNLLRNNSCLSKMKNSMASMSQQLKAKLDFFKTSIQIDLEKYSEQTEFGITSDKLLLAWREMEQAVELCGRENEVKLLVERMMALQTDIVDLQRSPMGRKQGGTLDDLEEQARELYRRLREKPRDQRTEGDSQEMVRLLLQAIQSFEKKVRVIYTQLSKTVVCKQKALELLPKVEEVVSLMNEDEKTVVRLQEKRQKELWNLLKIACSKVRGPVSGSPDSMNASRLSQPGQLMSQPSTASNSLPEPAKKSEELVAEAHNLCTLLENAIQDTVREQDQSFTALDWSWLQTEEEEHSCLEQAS

FGFR1, sequence (P11362 22-822): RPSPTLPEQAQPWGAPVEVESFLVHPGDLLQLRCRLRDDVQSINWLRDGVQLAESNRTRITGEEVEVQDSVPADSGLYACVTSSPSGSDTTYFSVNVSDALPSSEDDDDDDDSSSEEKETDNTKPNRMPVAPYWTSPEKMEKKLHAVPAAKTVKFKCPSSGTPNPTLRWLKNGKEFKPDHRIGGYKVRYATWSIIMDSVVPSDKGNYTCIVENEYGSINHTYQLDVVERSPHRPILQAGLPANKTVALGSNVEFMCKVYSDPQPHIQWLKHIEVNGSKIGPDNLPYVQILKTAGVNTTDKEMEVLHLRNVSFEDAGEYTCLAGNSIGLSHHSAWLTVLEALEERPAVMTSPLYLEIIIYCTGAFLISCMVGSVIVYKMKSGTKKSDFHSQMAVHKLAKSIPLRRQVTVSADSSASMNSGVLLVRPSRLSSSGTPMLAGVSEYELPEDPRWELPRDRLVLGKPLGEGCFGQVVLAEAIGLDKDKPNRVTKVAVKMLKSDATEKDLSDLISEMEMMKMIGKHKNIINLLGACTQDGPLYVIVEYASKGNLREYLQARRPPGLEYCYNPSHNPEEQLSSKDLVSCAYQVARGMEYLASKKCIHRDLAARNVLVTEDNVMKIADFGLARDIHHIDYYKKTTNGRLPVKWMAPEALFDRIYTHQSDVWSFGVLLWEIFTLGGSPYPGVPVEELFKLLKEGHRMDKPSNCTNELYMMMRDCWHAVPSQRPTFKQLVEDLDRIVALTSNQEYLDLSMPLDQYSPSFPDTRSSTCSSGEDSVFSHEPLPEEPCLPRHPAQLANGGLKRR
T1 sequence (P00519 whole entry): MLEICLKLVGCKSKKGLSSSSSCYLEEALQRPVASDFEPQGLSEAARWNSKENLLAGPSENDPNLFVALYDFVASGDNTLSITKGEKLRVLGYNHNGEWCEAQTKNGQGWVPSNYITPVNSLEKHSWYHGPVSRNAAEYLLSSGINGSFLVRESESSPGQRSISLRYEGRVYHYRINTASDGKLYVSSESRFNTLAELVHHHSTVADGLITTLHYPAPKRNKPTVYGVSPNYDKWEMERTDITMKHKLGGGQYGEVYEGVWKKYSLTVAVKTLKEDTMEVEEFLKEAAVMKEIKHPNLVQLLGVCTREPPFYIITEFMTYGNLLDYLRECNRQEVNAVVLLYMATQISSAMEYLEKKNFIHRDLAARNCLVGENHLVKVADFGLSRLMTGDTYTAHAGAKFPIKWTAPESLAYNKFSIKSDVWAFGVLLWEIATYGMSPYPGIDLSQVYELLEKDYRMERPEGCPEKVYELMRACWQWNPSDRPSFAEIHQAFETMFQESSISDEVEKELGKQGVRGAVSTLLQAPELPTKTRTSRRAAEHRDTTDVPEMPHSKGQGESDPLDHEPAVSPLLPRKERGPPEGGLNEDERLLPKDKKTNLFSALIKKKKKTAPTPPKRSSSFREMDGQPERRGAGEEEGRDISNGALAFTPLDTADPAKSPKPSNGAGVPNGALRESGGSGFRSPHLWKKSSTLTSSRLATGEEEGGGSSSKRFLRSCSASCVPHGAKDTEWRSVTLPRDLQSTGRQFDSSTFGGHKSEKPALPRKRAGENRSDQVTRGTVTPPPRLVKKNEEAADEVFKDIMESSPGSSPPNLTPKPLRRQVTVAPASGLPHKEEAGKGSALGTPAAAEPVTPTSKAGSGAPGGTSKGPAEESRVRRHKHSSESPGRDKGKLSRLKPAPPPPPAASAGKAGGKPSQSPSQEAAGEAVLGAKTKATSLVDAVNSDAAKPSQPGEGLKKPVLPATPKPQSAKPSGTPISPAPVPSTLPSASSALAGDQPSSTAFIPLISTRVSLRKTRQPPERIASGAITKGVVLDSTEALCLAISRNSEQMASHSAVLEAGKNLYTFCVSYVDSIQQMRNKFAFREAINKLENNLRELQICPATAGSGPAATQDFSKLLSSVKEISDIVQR
T2 sequence (P00519 whole entry): as above
T4 sequence (P50613 whole entry): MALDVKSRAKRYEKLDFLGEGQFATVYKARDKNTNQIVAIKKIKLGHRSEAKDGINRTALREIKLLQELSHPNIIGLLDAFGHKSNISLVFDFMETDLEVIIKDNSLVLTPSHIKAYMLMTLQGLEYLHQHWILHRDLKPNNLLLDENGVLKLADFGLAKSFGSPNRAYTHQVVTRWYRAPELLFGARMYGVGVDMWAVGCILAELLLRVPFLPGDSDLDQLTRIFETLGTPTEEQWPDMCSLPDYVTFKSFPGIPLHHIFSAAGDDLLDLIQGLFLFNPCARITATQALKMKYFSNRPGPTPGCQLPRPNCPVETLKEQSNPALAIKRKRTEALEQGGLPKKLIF
T3 sequence (O75116 whole entry): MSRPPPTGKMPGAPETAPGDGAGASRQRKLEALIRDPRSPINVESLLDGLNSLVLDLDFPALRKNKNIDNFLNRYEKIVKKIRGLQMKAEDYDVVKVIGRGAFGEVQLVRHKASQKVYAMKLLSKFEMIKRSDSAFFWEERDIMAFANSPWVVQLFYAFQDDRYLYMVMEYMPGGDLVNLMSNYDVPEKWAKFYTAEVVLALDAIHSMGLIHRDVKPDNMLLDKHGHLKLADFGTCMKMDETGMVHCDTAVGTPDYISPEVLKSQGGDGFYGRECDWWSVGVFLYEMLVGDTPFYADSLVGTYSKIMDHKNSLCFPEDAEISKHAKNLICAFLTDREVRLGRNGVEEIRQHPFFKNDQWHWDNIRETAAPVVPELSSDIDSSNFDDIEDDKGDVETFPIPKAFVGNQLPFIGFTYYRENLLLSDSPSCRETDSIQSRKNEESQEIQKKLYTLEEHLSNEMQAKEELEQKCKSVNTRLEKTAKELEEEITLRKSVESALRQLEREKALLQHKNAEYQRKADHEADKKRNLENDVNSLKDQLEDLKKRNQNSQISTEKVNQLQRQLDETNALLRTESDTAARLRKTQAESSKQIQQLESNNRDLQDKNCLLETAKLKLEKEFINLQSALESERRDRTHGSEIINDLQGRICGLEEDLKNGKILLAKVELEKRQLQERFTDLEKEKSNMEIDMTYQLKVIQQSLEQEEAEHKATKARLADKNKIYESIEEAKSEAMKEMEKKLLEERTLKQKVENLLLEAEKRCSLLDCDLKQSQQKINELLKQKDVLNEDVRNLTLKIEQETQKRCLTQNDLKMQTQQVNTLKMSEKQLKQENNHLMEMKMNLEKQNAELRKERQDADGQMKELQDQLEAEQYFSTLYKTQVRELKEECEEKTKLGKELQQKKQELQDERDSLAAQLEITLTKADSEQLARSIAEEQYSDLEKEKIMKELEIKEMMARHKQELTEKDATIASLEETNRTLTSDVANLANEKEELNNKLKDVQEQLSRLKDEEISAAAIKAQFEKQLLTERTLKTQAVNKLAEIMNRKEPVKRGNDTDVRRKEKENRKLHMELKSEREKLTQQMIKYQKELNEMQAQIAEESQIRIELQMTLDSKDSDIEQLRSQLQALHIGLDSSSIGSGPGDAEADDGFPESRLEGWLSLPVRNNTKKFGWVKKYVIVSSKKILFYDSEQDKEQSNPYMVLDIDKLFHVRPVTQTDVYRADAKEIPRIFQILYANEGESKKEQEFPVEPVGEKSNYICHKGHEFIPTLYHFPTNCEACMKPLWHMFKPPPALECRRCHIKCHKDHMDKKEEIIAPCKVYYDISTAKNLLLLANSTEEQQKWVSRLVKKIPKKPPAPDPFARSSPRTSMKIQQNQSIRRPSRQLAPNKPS

| IC50 [1] | % Ctrl ABL1-phosphorylated [4] | % Ctrl ROCK2 [5] | IC50 ([6]; 100 μM ATP) | reduction of inhibitory activity on FGFR compared to Ponatinib ([6]; PHI1 versus Ponatinib) | Compound | IC50 [2] | IC50 [3] | inhibition of colony formation in 3D culture (in words) [7] | % Ctrl CDK7 [8] | % Ctrl IKK-beta [9] |
| --- | --- | --- | --- | --- | --- | --- | --- | --- | --- | --- |
| 8.4 ± 0.3 nM | 0.1 % Ctrl | 35 % Ctrl | 624 ± 25 nM | 43 fold | Cc1ccc(C(=O)Nc2ccc(CNCCN3CCOCC3)c(C(F)(F)F)c2)cc1C#Cc1cnc2cccnn12 [PHI1] | 6800 nM | 1890 nM | – | – | – |
| – | – | – | – | – | Cc1ccc(C(=O)Nc2ccc(CN3CCN(C)CC3)c(C(F)(F)F)c2)cc1C#Cc1cnc2cccnn12 [Ponatinib, 3-[2-(imidazo[1,2-b]pyridazin-3-yl)ethynyl]-4-methyl-N-{4-[(4-methylpiperazin-1-yl)methyl]-3-(trifluoromethyl)phenyl}benzamide] | – | – | increased efficacy to inhibit colony formation as compared to Vemurafenib | 6.2 % Ctrl | 1.4 % Ctrl |
